{
  "source": "patent US5093327A",
  "about": "“Inhibition of HIV and other retroviruses by polyoxoanions” (Du Pont Merck Pharmaceutical Company, priority 1991, dated 1992)",
  "key": {"[1]": {"test_system": "HIV-IIIB in ATH8 cells", "test": "HIV Infectivity Assay in ATH8 Cells (50% protection from virus-induced cytopathogenesis)", "format": "cell-based", "settings": "for HIV Infectivity ATH8 IC50: ATH8 cells, HIV-IIIB, 10 days"}, "[2]": {"test_system": "HIV-IIIB in H9 cells (reverse transcriptase)", "test": "HIV Infectivity Assay in H9 Cells (HIV reverse transcriptase production)", "format": "cell-based", "settings": "day 10"}, "[3]": {"test_system": "Friend leukemia virus (FLV)", "test": "XC plaque assay for quantitation of Friend leukemia virus (FLV) in vitro", "format": "cell-based", "settings": "for FLV In Vitro IC50: XC plaque formation"}, "[4]": {"test_system": "Friend leukemia virus (FLV)", "test": "Splenomegaly assay for quantitation of Friend leukemia virus (FLV) in vivo", "set-up": "species or system Female Balb/c mice", "settings": "for FLV In Vivo ED50: 50% inhibition of virus-induced splenomegaly, once a day through 7 days post-infection, 30240 min"}, "[5]": {"test_system": "Rauscher leukemia virus (RLV)", "test": "Splenomegaly assay for quantitation of Rauscher leukemia virus (RLV) in vivo", "set-up": "species or system Female BALB/c mice", "settings": "50% inhibition of virus-induced splenomegaly, ip, once a day through 14 days post-infection; 30240 min", "from_the_text": "Treatment is given once a day, continuing through 14 days post-infection. Ribavirin is used as a positive control compound. Uninfected, vehicle-treated mice serve as normal spleen controls, while infected, vehicle-treated mice serve as infected spleen controls. At 21 days post-infection the mice are sacrificed and spleens are surgically excised and weighed."}, "[6]": {"test_system": "SIV", "test": "Activity against SIV", "format": "cell-based"}, "[7]": {"test_system": "LPBM-5", "test": "Activity against LPBM-5 in vivo"}, "[8]": {"test_system": "FLV", "test": "Combination therapy with AZT against FLV-induced splenomegaly", "format": "in vivo, mice", "procedure": "(§1) Female Balb/c mice are infected intraperitoneally with 0.2 ml of FLV suspension at a concentration predetermined to induce spleen weights of 1-2 grams in vehicle-treated control mice at 21 days post-infection. Beginning 24 hours post-infection, mice (10/group) are treated with 10-100 mg/kg of test compound in Sterile Normal Saline for injection (USP) as a carrier for either intraperitoneal, subcutaneous, intravenous or oral route administration. Treatment is given once a day, continuing through 7 days post-infection. AZT is used as a positive control compound. Uninfected, vehicle-treated mice serve as normal spleen controls, while virus-infected, vehicle-treated mice serve as infected spleen controls. At 21 days post-infection the mice are sacrificed and spleens are surgically excised and weighed. Results are expressed as Treated/Control (T/C), where control represents the means spleen weight of FLV-infected, vehicle-treated mice and is arbitrarily set to 1.0. The doses of test compounds required to inhibit virus-induced splenomegaly by 50% (ED50) are shown in Table 1 as compared to AZT the control compound.\nSince AZT is currently approved for the clinical treatment of HIV/AIDS, a combination therapy of AZT and the compounds of the present invention for the treatment of retrovirus and, particularly HIV/AIDS, may be a favorable alternative treatment plan. In order to determine how effective the compounds would be if given together, the following study was done.\nFLV-infected mice are treated with compound 1 (0.8-20 mg/kg), alone or in combination with AZT (8-200 mg/kg). Starting one day post-infection compounds are given once daily for seven days. Compound 1 is administered subcutaneously (sc) while AZT is administered intraperitoneally (ip) in order not to physically mix the compounds at the same site."}, "[9]": {"test_system": "FLV", "test": "Alternate dosing regimen with combination therapy with AZT against FLV-induced splenomegaly", "format": "in vivo, mice"}, "[10]": {"test_system": "FLV", "test": "Compound 1/Poly-I:C combination therapy against FLV-induced splenomegaly", "format": "in vivo, mice", "settings": "for reduction of splenomegaly: individual dosing", "procedure": "as §1\nFLV-infected mice are treated with compound 1 (1.25-20.00 mg/kg S.C. daily x 7d beginning one day post-infection alone or in combination with Poly-I:C (0.31-5.0 mg/kg ip daily x 7d beginning one day post-infection. Results are shown in Table 4."}},
  "data": [
    {"compound": "β-Cs5 [Compound 4, β-Cs5 [PV2 W10 O40]]", "values": [
      {"measurement": "HIV Infectivity ATH8 IC50", "setting": "[1]", "value": 1.6, "unit": "µg/mL"},
      {"measurement": "HIV Infectivity RT/H9 IC50", "setting": "[2]", "value": "< 10", "unit": "µg/mL"},
      {"measurement": "FLV In Vitro IC50", "setting": "[3]", "value": 7, "unit": "µg/mL"},
      {"measurement": "FLV In Vivo ED50", "setting": "[4]", "value": "10 to 20", "unit": "mg/kg"}
    ]},
    {"compound": "K7 [Compound 3, K7 [BV^IV W11 O40]]", "values": [
      {"measurement": "HIV Infectivity ATH8 IC50", "setting": "[1]", "value": 1.5, "unit": "µg/mL"},
      {"measurement": "HIV Infectivity RT/H9 IC50", "setting": "[2]", "value": "< 10", "unit": "µg/mL"},
      {"measurement": "FLV In Vitro IC50", "setting": "[3]", "value": 0.1, "unit": "µg/mL"},
      {"measurement": "FLV In Vivo ED50", "setting": "[4]", "value": 7.5, "unit": "mg/kg"}
    ]},
    {"compound": "K6 [Compound 1, K6 [BVW11 O40]]", "values": [
      {"measurement": "HIV Infectivity ATH8 IC50", "setting": "[1]", "value": 1.0, "unit": "µg/mL"},
      {"measurement": "HIV Infectivity RT/H9 IC50", "setting": "[2]", "value": "< 10", "unit": "µg/mL"},
      {"measurement": "FLV In Vitro IC50", "setting": "[3]", "value": 1, "unit": "µg/mL"},
      {"measurement": "FLV In Vivo ED50", "setting": "[4]", "value": "10 to 20", "unit": "mg/kg"},
      {"measurement": "RLV In Vivo ED50", "setting": "[5]", "value": "10 to 20", "unit": "mg/kg"},
      {"measurement": "IC50 against SIV", "setting": "[6]", "value": "< 1", "unit": "µg/mL"},
      {"measurement": "ED50 against LPBM-5 in vivo", "setting": "[7]", "value": "10 to 20", "unit": "mg/kg"},
      {"measurement": "T/C (spleen weight)", "setting": "[8]; Cpd 1 0.8 mg/kg sc, AZT 0, days 1-7", "value": 1.0},
      {"measurement": "T/C (spleen weight)", "setting": "[8]; Cpd 1 4.0 mg/kg sc, AZT 0, days 1-7", "value": 0.94},
      {"measurement": "T/C (spleen weight)", "setting": "[8]; Cpd 1 20.0 mg/kg sc, AZT 0, days 1-7", "value": 0.52},
      {"measurement": "percent reduction in splenomegaly", "setting": "[8]; compound 1 alone at 20 mg/kg", "value": "about 50%"},
      {"measurement": "T/C (spleen weight)", "setting": "[9]; Cpd 1 80 mg/kg S.C. days 1 & 10, AZT 0", "value": 0.21},
      {"measurement": "T/C (spleen weight)", "setting": "[9]; Cpd 1 80 mg/kg S.C. days 1 & 14, AZT 0", "value": 0.17},
      {"measurement": "T/C (spleen weight)", "setting": "[9]; Cpd 1 80 mg/kg S.C. days 1 & 17, AZT 0", "value": 0.5},
      {"measurement": "efficacy of two doses administered alone", "setting": "[9]; two doses of compound 1 alone, 10-17 days apart", "value": "efficacious"},
      {"measurement": "T/C (spleen weight)", "setting": "[10]; Cpd 1 1.25 mg/kg S.C. daily x 7 days, Poly-I:C 0", "value": 0.8},
      {"measurement": "T/C (spleen weight)", "setting": "[10]; Cpd 1 5.0 mg/kg S.C. daily x 7 days, Poly-I:C 0", "value": 0.58},
      {"measurement": "T/C (spleen weight)", "setting": "[10]; Cpd 1 20.0 mg/kg S.C. daily x 7 days, Poly-I:C 0", "value": 0.33},
      {"measurement": "reduction of splenomegaly", "setting": "[10]; compound 1 20 mg/kg", "value": 60, "unit": "%"}
    ]},
    {"compound": "1,2-K5 [Compound 2, 1,2-K5 [PV2 W10 O40]]", "values": [
      {"measurement": "HIV Infectivity ATH8 IC50", "setting": "[1]", "value": 1.0, "unit": "µg/mL"},
      {"measurement": "HIV Infectivity RT/H9 IC50", "setting": "[2]", "value": "< 10", "unit": "µg/mL"},
      {"measurement": "FLV In Vitro IC50", "setting": "[3]", "value": 2.5, "unit": "µg/mL"},
      {"measurement": "FLV In Vivo ED50", "setting": "[4]", "value": "10 to 20", "unit": "mg/kg"},
      {"measurement": "RLV In Vivo ED50", "setting": "[5]", "value": "15 to 20", "unit": "mg/kg"}
    ]},
    {"compound": "Na12 [Compound 7, Na12 [P2 W15 O62]]", "values": [
      {"measurement": "HIV Infectivity ATH8 IC50", "setting": "[1]", "value": 2.6, "unit": "µg/mL"},
      {"measurement": "FLV In Vivo ED50", "setting": "[4]", "value": "> 20", "unit": "mg/kg"}
    ]},
    {"compound": "K7 [Compound 6, K7 [PTi2 W10 O40]]", "values": [
      {"measurement": "HIV Infectivity ATH8 IC50", "setting": "[1]", "value": 5.6, "unit": "µg/mL"},
      {"measurement": "FLV In Vitro IC50", "setting": "[3]", "value": 5, "unit": "µg/mL"},
      {"measurement": "FLV In Vivo ED50", "setting": "[4]", "value": "IA (Inactive)"}
    ]},
    {"compound": "K9 (NH4)H2 [Compound 8, K9 (NH4)H2 [(OCe)3 (PW9 O34)2]]", "values": [
      {"measurement": "HIV Infectivity ATH8 IC50", "setting": "[1]", "value": 1.0, "unit": "µg/mL"},
      {"measurement": "FLV In Vitro IC50", "setting": "[3]", "value": 10, "unit": "µg/mL"},
      {"measurement": "FLV In Vivo ED50", "setting": "[4]", "value": "10 to 20", "unit": "mg/kg"}
    ]},
    {"compound": "K6 [Compound 5, K6 [SiTiW11 O40]]", "values": [
      {"measurement": "HIV Infectivity ATH8 IC50", "setting": "[1]", "value": 3.2, "unit": "µg/mL"},
      {"measurement": "FLV In Vitro IC50", "setting": "[3]", "value": 3, "unit": "µg/mL"},
      {"measurement": "FLV In Vivo ED50", "setting": "[4]", "value": 20, "unit": "mg/kg"}
    ]},
    {"compound": "PolyInosinic-PolyCytidylic Acid [Poly-I:C, reference compound]", "values": [
      {"measurement": "T/C (spleen weight)", "setting": "[10]; Poly-I:C 0.31 mg/kg ip daily x 7 d, Cpd 1 0", "value": 1.2},
      {"measurement": "T/C (spleen weight)", "setting": "[10]; Poly-I:C 1.25 mg/kg ip daily x 7 d, Cpd 1 0", "value": 1.1},
      {"measurement": "T/C (spleen weight)", "setting": "[10]; Poly-I:C 5.0 mg/kg ip daily x 7 d, Cpd 1 0", "value": 0.39},
      {"measurement": "reduction of splenomegaly", "setting": "[10]; Poly-I:C 5 mg/kg", "value": 60, "unit": "%"}
    ]},
    {"compound": "Cc1cn([C@H]2C[C@H](N=[N+]=[N-])[C@@H](CO)O2)c(=O)[nH]c1=O", "note": "[AZT, 3'-Azido-3'-deoxythymidine, reference compound]", "values": [
      {"measurement": "IC50", "setting": "[1]; Human immunodeficiency virus 1, IIIB, ATH-8, 240 h, read-out: HIV Infectivity ATH8 IC50", "value": 0.005, "unit": "µg/mL"},
      {"measurement": "in vitro potency of AZT relative to the polyoxoanions", "setting": "[1]; in vitro, data in Table 1", "value": "more potent in vitro than the polyoxoanions of the present invention"},
      {"measurement": "IC50", "setting": "[3]; read-out: FLV In Vitro IC50", "value": 0.005, "unit": "µg/mL"},
      {"measurement": "ED50", "setting": "[4]; Mus musculus, 504 h, read-out: FLV In Vivo ED50", "value": 100, "unit": "mg/kg"},
      {"measurement": "T/C (spleen weight)", "setting": "[8]; AZT 8 mg/kg ip, Cpd 1 0, days 1-7", "value": 0.83},
      {"measurement": "T/C (spleen weight)", "setting": "[8]; AZT 40 mg/kg ip, Cpd 1 0, days 1-7", "value": 0.69},
      {"measurement": "T/C (spleen weight)", "setting": "[8]; AZT 200 mg/kg ip, Cpd 1 0, days 1-7", "value": 0.46},
      {"measurement": "percent reduction in splenomegaly", "setting": "[8]; AZT alone at 200 mg/kg", "value": "about 50%"},
      {"measurement": "T/C (spleen weight)", "setting": "[9]; AZT 12.5 mg/kg ip daily x 7 days, no Cpd 1 (Control)", "value": 0.93},
      {"measurement": "T/C (spleen weight)", "setting": "[9]; AZT 50 mg/kg ip daily x 7 days, no Cpd 1 (Control)", "value": 0.71},
      {"measurement": "T/C (spleen weight)", "setting": "[9]; AZT 200 mg/kg ip daily x 7 days, no Cpd 1 (Control)", "value": 0.45},
      {"measurement": "reduction in splenomegaly", "setting": "[9]; AZT alone", "value": "30-50%"}
    ]}
  ]
}
